Assay results published in ChEMBL document CHEMBL2010693, “Scaffold hybridization in generation of indenoindolones as anticancer agents that induce apoptosis with cell cycle arrest at G2/M phase” (Bioorg Med Chem Lett, 2012).
Calls of active or inactive are those of the source. The calls are words filed in the database; no cut-off is given here.

Columns and labels:
HEK293 [1] = assay: Cell cycle arrest in human HEK293 cells assessed as accumulation at G2/M phase at LC50 after 48 hrs by propidium iodide staining based FACS analysis (reference value: 2.76 %); type: functional
HEK293 [2] = assay: Induction of apoptosis in human HEK293 cells assessed as punchate nuclei at LC50 after 48 hrs using DAPI staining method; type: functional, cell-based
HEK293 [3] = assay: Cytotoxicity against human HEK293 cells after 48 hrs by MTT assay; type: functional; settings: HEK293, 48 h, read-out: LC50 (the source's name)
HEK293 [4] = assay: Cell cycle arrest in human HEK293 cells assessed as accumulation at G1 phase at LC50 after 48 hrs by propidium iodide staining based FACS analysis (reference value: 53.56 %); type: functional
HEK293 [5] = assay: Cell cycle arrest in human HEK293 cells assessed as accumulation at S phase at LC50 after 48 hrs by propidium iodide staining based FACS analysis (reference value: 18.92 %); type: functional
HEK293 [6] = assay: Induction of apoptosis in human HEK293 cells assessed as reduction of Bcl-xL level after 48 hrs by Western blot analysis; type: functional, cell-based
[7] = Cytotoxicity against african green monkey Vero cells after 48 hrs by MTT assay; type: cell-based; settings: chlorocebus sabaeus, read-out: LC50
HEK293 [8] = assay: Induction of apoptosis in human HEK293 cells assessed as shrinkage of nuclei at LC50 after 48 hrs using DAPI staining method; type: functional, cell-based
HEK293 [9] = assay: Cell cycle arrest in human HEK293 cells assessed as accumulation at G0 phase at LC50 after 48 hrs by propidium iodide staining based FACS analysis (reference value: 3.5 %); type: functional
[10] = Cytotoxicity against african green monkey Vero cells after 24 hrs by MTT assay; type: cell-based; settings: chlorocebus sabaeus, read-out: LC50
HEK293 [11] = assay: Induction of apoptosis in human HEK293 cells assessed as increase in induction of PARP cleavage after 48 hrs by Western blot analysis; type: functional, cell-based
HEK293 [12] = assay: Induction of apoptosis in human HEK293 cells assessed as increase in Bax expression after 48 hrs by Western blot analysis; type: functional, cell-based
HEK293 [13] = assay: Induction of apoptosis in human HEK293 cells assessed as bubble shape nuclei at LC50 after 48 hrs using DAPI staining method; type: functional, cell-based
HEK293 [14] = assay: Cytotoxicity against human HEK293 cells after 24 hrs by MTT assay; type: functional; settings: HEK293, 24 h, read-out: LC50 (the source's name)
[15] = Cytotoxicity against african green monkey Vero cells after 72 hrs by MTT assay; type: cell-based; settings: chlorocebus sabaeus, read-out: LC50
HEK293 [16] = assay: Induction of apoptosis in human HEK293 cells assessed as increase in caspase-3 cleavage after 48 hrs by Western blot analysis; type: functional, cell-based
HEK293 [17] = assay: Cytotoxicity against human HEK293 cells after 72 hrs by MTT assay; type: functional; settings: HEK293, 72 h, read-out: LC50 (the source's name)
HEK293 [18] = assay: Induction of apoptosis in human HEK293 cells assessed as increase in caspase-3 expression after 48 hrs by immunohistochemistry analysis; type: functional, cell-based

With `COc1cc2c(c(OC)c1OC)-c1c(c3ccccc3n1C)C2=O` the Activity (HEK293 [1]) was 57.56%, the Activity (HEK293 [2]) was “Active” and the CC50 (HEK293 [3]) was 17 µM. The Activity (HEK293 [4]) was 22.98%, the Activity (HEK293 [5]) was 19.52% and the Activity (HEK293 [6]) was “Active”. For the same compound, the CC50 at 48 h [7] was 39 µM, the Activity (HEK293 [8]) was “Active” and the Activity (HEK293 [9]) was 0.23%. For the same compound, the CC50 at 24 h [10] was 42 µM, the Activity (HEK293 [11]) was “Active” and the Activity (HEK293 [12]) was “Active”. For the same compound, the Activity (HEK293 [13]) was “Active”, the CC50 (HEK293 [14]) was 39 µM and the CC50 at 72 h [15] was 35 µM. For the same compound, the Activity (HEK293 [16]) was “Active”, the CC50 (HEK293 [17]) was 16 µM and the Activity (HEK293 [18]) was “Active”.

For `O=c1[nH]cc(F)c(=O)[nH]1` [FLUOROURACIL], the CC50 (HEK293 [3]) was 25 µM.

With `COc1cc2c(cc1OC)-c1[nH]c3ccccc3c1C2=O` the Activity (HEK293 [1]) was 73.31%, the Activity (HEK293 [2]) was “Active” and the CC50 (HEK293 [3]) was 15 µM. For the same compound, the Activity (HEK293 [4]) was 3.43%, the Activity (HEK293 [5]) was 23.95% and the Activity (HEK293 [6]) was “Active”. For the same compound, the CC50 at 48 h [7] was 54 µM, the Activity (HEK293 [8]) was “Active” and the Activity (HEK293 [9]) was 0.03%. The CC50 at 24 h [10] was 47 µM, the Activity (HEK293 [11]) was “Active” and the Activity (HEK293 [12]) was “Active”. For the same compound, the Activity (HEK293 [13]) was “Active”, the CC50 (HEK293 [14]) was 16 µM and the CC50 at 72 h [15] was 55 µM. The Activity (HEK293 [16]) was “Active”, the CC50 (HEK293 [17]) was 12 µM and the Activity (HEK293 [18]) was “Active”.

Work on `COc1cc([C@@H]2c3cc4c(cc3[C@@H](O[C@@H]3O[C@@H]5CO[C@@H](C)O[C@H]5[C@H](O)[C@H]3O)[C@H]3COC(=O)[C@H]23)OCO4)cc(OC)c1O` [ETOPOSIDE] yielded a CC50 (HEK293 [3]) of 28 µM and a CC50 at 48 h [7] of 18 µM.

With `O=C1c2ccccc2-c2[nH]c3ccccc3c21` the Activity (HEK293 [1]) was 76.44%, the Activity (HEK293 [2]) was “Active” and the CC50 (HEK293 [3]) was 15 µM. The Activity (HEK293 [4]) was 6.29%, the Activity (HEK293 [5]) was 17.35% and the Activity (HEK293 [6]) was “Active”. For the same compound, the CC50 at 48 h [7] was 48 µM, the Activity (HEK293 [8]) was “Active” and the Activity (HEK293 [9]) was 0.05%. The CC50 at 24 h [10] was 56 µM, the Activity (HEK293 [11]) was “Active” and the Activity (HEK293 [12]) was “Active”. The Activity (HEK293 [13]) was “Active”, the CC50 (HEK293 [14]) was 50 µM and the CC50 at 72 h [15] was 40 µM. The Activity (HEK293 [16]) was “Active”, the CC50 (HEK293 [17]) was 14 µM and the Activity (HEK293 [18]) was “Active”.

With `O=C1c2cc(F)ccc2-c2[nH]c3ccccc3c21` the Activity (HEK293 [1]) was 38.9%, the Activity (HEK293 [2]) was “Active” and the CC50 (HEK293 [3]) was 22 µM. The Activity (HEK293 [4]) was 37.31%, the Activity (HEK293 [5]) was 23.79% and the Activity (HEK293 [6]) was “Active”. The CC50 at 48 h [7] was over 100 µM, the Activity (HEK293 [8]) was “Active” and the Activity (HEK293 [9]) was 0.46%. The CC50 at 24 h [10] was over 100 µM, the Activity (HEK293 [11]) was “Active” and the Activity (HEK293 [12]) was “Active”. The Activity (HEK293 [13]) was “Active”, the CC50 (HEK293 [14]) was 18 µM and the CC50 at 72 h [15] was 65 µM. For the same compound, the Activity (HEK293 [16]) was “Active”, the CC50 (HEK293 [17]) was 15 µM and the Activity (HEK293 [18]) was “Active”.

In the case of `O=C1c2ccccc2-c2c1c1ccccc1n2Cc1ccccc1`, the Activity (HEK293 [1]) is reported as 38.7%, the Activity (HEK293 [2]) is reported as “Active” and the CC50 (HEK293 [3]) is reported as 17 µM. For the same compound, the Activity (HEK293 [4]) was 41.21%, the Activity (HEK293 [5]) was 20.19% and the Activity (HEK293 [6]) was “Active”. The CC50 at 48 h [7] was 53 µM, the Activity (HEK293 [8]) was “Active” and the Activity (HEK293 [9]) was 0.44%. The CC50 at 24 h [10] was 57 µM, the Activity (HEK293 [11]) was “Active” and the Activity (HEK293 [12]) was “Active”. The Activity (HEK293 [13]) was “Active”, the CC50 (HEK293 [14]) was 50 µM and the CC50 at 72 h [15] was 45 µM. The Activity (HEK293 [16]) was “Active”, the CC50 (HEK293 [17]) was 16 µM and the Activity (HEK293 [18]) was “Active”.
